Measurements: patent publication US10058587B2, “Peptide composition for cancer treatment by inhibiting TRPV6 calcium channel activity” (priority 2008, dated 2018)
Where no end group is shown, it is not given here.

Columns and labels:
[1] = Degradation rate in rat plasma (HPLC); type: in vitro ADME
Protocol: Rat plasma was obtained from blood taken from sacrificed rats (Sprague-Dawley) and placed into heparinized glass vials to prevent clotting. Whole blood was centrifuged at 8000×g for 5 minutes to spin down the cells leaving the plasma as supernatant. Human whole blood samples from healthy humans were taken in lithium-heparinized vacuum tubes. The samples were placed into 2.0 mL microcentrifuge tubes and centrifuged at 8000×g for 5 min. The plasma was carefully separated from red blood cells and used immediately.
Determination of degradation rate of the C-peptides was done by measuring, with the HPLC protocol, the amount of either SorC13 or SorC27 in dosed plasma samples, after time. Sample tubes (500 uL) containing 2 uL of 2 mM Pefabloc were previously prepared for sample delivery SorC13 (1.0 mg) or SorC27 (2.0 mg) were dissolved in 1.0 mL of fresh plasma (37° C.) and placed in an incubating water bath at 37° C. A sample (100 uL) was taken immediately and quenched in sample tubes containing 2 uL of 2 mM Pefabloc, mixed vigorously and immediately frozen at −80° C. This initial sample represented time zero for the run. At successive time intervals of 5 minutes, 100 uL samples were withdrawn, quenched in Pefabloc, mixed, and frozen at −80° C. until analysis.
The rat plasma degradation rate was determined for the plasma from three different rats, while the rate of degradation in human plasma used six separate plasma samples. The data used were the means (±SEM) and were fitted to a simple one-phase exponential decay model to determine the half-life of the two peptides. This also allowed the calculation of a static degradation rate. FIG. 11 is illustrative of the rate at which SorC27 was degraded in human plasma.

[2] = Storage stability of solid and aqueous solution; type: physicochemical
Protocol: Additionally, the peptides have greater shelf-life stability and solution stability due to the presence of fewer sensitive disulfide bonds (soricidin has 3 disulfide bonds). The peptides of the invention optionally have no disulfide bonds. An absence of disulfide bonds provides a very long shelflife during storage under minimal refrigeration or at room temperature as a solid. Additionally when the peptides of the invention with no disulfide bonds are dissolved in water, cleavage of disulfide bonds cannot occur. […] The formation of inter-peptide S—S bonds also results in precipitation of soricidin. The peptides of the invention, such as SorC13 and SorC27, are typically stable in aqueous solution at 8° C. for at least 3 weeks with no change in purity as measured by HPLC.
“Very stable” in the above table means that there was no observable degradation of the solid peptides over 6 months. As a solution in sterile water, the peptides are typically stable for at least 3 weeks at 8° C. and at −20° C., are expected to be stable more than 1 year.

[3] = system: MDA-MB-468 (MB 468) breast cancer cell line; assay: Induction of apoptosis (APO-ONE caspase 3/7) and cell viability (CellTiter Blue); type: cell-based, human; parameters: key: decreased (+); or not (−); conditions: SorC27
Protocol: MCF-7, MDA-MB-231, MDA-MB-415, MDA-MB-468 were grown in DMEM modified with 10% (v/v) fetal bovine serum, 2 mM L-glutamine and 50 ug/mL each of penicillin and streptomycin.
(§1) The levels of apoptotic induction and cell viability were determined by multiplexing the measurements for single samples. CellTiter Blue and APO-ONE assay systems from Promega allows the determination of cell viability correlated to cell number, and induction of apoptosis. This protocol uses a fluorgenic peptide that contains a peptide recognition-sequence for caspase 3 and caspase 7, […] proteolytic enzymes of the apoptosis cascade. The CellTiter Blue reagent was added to wells in a 96-well plate containing cells under test, immediately after addition of peptide solution or vehicle. About 5000 cells were plated into the wells the day before. At the chosen time (Day 1, Day 2 etc.) the fluorescence was measured at 590 nm (emission) after excitation at 560 nm. The caspase 3/7 activity was measured (485 nm Ex/527 nm Em) in the same wells after adding 120 uL of the Apo-ONE reagent, freeze fracturing at −80° C. for 1 hr, and incubating for 1 hr at room temperature.
For this work, the concentrations of SorC13 and SorC27 used were 0 uM, 1 uM, 10 uM and 100 uM. The experiments extended over a 5 to 7 day period. […]

[4] = system: CaOV3 ovarian cancer cell line; assay: as above; type: cell-based, human; parameters: key to Decline in cell viability: decreased (+); or not (−)
Protocol: CAOV-3 was cultured in Dulbecco's Modified Eagle Medium (4.5 g/L glucose) with 4 mM L-glutamine, 1.5 g/L sodium bicarbonate and 10% (v/v) fetal bovine serum.
as §1
For this work, the concentrations of SorC13 and SorC27 used were 0 uM, 1 uM, 10 uM and 100 uM. The experiments extended over a 5 to 7 day period. All measurements were done in quadruplicate with both a blank (no cells) and control (vehicle, no peptide) used to correct the test measurements. The time-response data, and the dose-response data were plotted as means±standard error of the mean. Any statistical comparisons were done with the Student's t-test or by ANOVA analysis over the dose course. The level of statistical significance was considered to be the 95% confidence interval (i.e., p≤0.05).
To compare the effect of the two SorC-peptides against the gold-standard treatment for ovarian cancers SorC13 or SorC27 was compared to treatment with a carboplatin and taxol (CAT) cocktail (10 uM Paclitaxel, 20 mM carboplatin) using the APO-ONE assay, which measures the combined activities of caspase 3 and caspase 7. […]

EGKLSSNDTEGGLCKEFLHPSKVDLPR [SorC27]
half-life ([1]; Sprague-Dawley, rat, plasma, 37° C.): 21 min
binding to plasma proteins ([1]; rat plasma): doesn't bind to
Stability in aqueous solution @ −20° C. [2]: Very stable
Stability solid @ Room Temp. [2]: Very stable
Stability solid @ −20° C. [2]: Very stable
Decline in cell viability [3]: +

KEFLHPSKVDLPR [SorC13, KEFLHPSKVDLPR]
apoptosis (treatment:control ratio) compared with CAT cocktail ([4]; CAT = 10 uM Paclitaxel, 20 mM carboplatin): produced earlier and more intense apoptosis cascade than the CAT cocktail
Apoptosis Index (1 = no effect) ([4]; Day5, SorC13 100 uM): 2.7
Decline in cell viability ([4]; Day5, SorC13 100 uM): +
